Experimental findings from ChEMBL document CHEMBL4406826, “Discovery of δ-sultone-fused pyrazoles for treating Alzheimer's disease: Design, synthesis, biological evaluation and SAR studies” (Eur J Med Chem, 2019) are described below.

The target in data set [1] is Cholinesterase (Equus caballus, UniProt P81908). Briefly: Inhibition of equine serum BuChE using butyrylthiocholine iodide as substrate preincubated with enzyme for 20 mins followed by substrate addition by Ellman's method. (In general: DTNB colorimetry detects thiols as they appear.)
Sequence of Cholinesterase (P81908 whole entry): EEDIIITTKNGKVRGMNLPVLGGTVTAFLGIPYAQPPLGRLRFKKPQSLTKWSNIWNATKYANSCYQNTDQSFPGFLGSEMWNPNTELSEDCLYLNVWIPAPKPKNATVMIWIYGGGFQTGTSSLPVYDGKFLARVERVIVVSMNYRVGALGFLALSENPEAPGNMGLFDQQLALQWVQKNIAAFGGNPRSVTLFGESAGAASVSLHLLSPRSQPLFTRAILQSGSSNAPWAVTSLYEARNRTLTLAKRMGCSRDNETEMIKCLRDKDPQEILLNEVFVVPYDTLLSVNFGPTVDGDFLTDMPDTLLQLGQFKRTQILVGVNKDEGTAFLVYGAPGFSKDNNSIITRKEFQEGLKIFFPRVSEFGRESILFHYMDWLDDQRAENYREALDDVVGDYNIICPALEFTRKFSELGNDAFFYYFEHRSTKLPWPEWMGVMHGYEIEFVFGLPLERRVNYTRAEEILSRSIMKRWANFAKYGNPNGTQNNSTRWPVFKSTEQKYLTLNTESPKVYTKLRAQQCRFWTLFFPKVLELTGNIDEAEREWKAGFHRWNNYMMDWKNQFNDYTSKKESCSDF
Data set [2] is described as follows: Octanol-PBS buffer partition coefficient, log P of the compound incubated for 24 hrs measured at pH 7.4 by shake-flask method. The data set is classed as physicochemical.
The target of data set [3] is Acetylcholinesterase (Electrophorus electricus) (UniProt O42275). Briefly: Inhibition of electric eel AChE at 20 uM using acetylthiocholine iodide as substrate preincubated with enzyme for 20 mins followed by substrate addition by Ellman's method relative to control.
Sequence of Acetylcholinesterase (Electrophorus electricus) (O42275 24-633 limits assumed): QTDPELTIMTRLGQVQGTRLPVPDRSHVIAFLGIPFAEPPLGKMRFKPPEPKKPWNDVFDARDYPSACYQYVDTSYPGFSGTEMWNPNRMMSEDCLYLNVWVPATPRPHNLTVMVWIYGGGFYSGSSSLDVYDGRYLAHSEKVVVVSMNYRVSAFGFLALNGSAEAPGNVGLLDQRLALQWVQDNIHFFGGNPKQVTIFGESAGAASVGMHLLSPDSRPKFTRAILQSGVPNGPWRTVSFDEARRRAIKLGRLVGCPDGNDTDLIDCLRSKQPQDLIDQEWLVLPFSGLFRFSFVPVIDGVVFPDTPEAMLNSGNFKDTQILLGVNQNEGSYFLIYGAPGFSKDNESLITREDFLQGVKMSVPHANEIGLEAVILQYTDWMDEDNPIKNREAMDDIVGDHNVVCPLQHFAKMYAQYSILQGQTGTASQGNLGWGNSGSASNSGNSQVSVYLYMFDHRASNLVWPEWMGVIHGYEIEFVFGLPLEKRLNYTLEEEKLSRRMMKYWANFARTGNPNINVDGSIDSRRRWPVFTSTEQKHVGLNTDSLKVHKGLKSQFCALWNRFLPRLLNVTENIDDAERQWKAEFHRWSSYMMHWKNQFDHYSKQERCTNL
The target of data set [4] is Cholinesterase (Equus caballus) (UniProt P81908). Nature of the data set: Reversible inhibition of equine serum BChE at 0.4 to 1 uM using varying levels of butyrylcholine iodide as substrate.
Sequence of Cholinesterase (Equus caballus) (P81908 whole entry): as the sequence (P81908 whole entry) above
Data set [5] addresses Acetylcholinesterase (Electrophorus electricus, UniProt O42275). Nature of the data set: Inhibition of electric eel AChE using acetylthiocholine iodide as substrate preincubated with enzyme for 20 mins followed by substrate addition by Ellman's method.

The source made the active and inactive calls. Bounds are passed on as bounds.

Sequence of Acetylcholinesterase (O42275 whole entry): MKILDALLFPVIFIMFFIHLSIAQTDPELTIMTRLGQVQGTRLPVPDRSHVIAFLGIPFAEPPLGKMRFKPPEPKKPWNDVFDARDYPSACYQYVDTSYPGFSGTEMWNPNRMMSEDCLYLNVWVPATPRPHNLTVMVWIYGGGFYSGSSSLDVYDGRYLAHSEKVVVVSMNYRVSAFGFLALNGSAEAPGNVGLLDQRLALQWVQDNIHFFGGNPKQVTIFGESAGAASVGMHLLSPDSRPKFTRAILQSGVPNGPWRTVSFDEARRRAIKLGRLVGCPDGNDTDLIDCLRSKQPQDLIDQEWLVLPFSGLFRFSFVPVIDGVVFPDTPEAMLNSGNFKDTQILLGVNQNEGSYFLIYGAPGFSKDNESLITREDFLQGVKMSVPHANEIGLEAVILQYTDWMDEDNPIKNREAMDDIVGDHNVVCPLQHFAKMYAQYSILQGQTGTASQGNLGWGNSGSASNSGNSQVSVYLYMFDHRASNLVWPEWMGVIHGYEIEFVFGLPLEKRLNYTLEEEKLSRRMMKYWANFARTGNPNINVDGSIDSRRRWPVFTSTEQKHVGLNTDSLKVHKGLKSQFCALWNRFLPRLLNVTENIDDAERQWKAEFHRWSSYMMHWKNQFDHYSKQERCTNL

A word on the IC50: it is the concentration at which inhibition is half-maximal. For orientation: logD means the decadic logarithm of the distribution of all forms, ionised or not, between an organic phase and buffer at a given pH. `Cc1cc(C2CS(=O)(=O)Oc3c2c(C2CC2)nn3-c2ccccc2Cl)ccc1Br` (stereo not drawn) returned an IC50 in data set [1] of 3.77 µM. In data set [2], this compound had a logD at 24 h of 2.53. Further, the inhibition entry in data set [3] was “inactive”.
For `O=S1(=O)CCc2c(C3CC3)nn(-c3ccccc3F)c2O1`, the midpoint of inhibition in data set [1], the IC50, lay at 0.199 µM. For the same compound, the logD at 24 h in data set [2] came to 2.09. In addition, in data set [4], the inhibition result is “Active”. Besides, the inhibition result in data set [3] was “inactive”.
`Cc1nn(-c2ccccc2)c2c1C(/C=C/c1cccc(C#N)c1)CS(=O)(=O)O2` (stereo not drawn): the results for the IC50 in data set [1] and in data set [5] were 10.6 µM and 16.3 µM, respectively.
On to `O=S1(=O)CC(c2ccc(F)cc2)c2c(C3CC3)nn(-c3ccccc3Cl)c2O1` (stereo not drawn), for which the midpoint of inhibition in data set [1], the IC50, lay at 6.02 µM. The compound further gave a logD at 24 h in data set [2] of 2.04. Also, in data set [3], the inhibition entry is “inactive”.
`Cc1nn(-c2ccccc2F)c2c1CCS(=O)(=O)O2` had an IC50 in data set [1] of 1.8 µM. This compound came in with a logD at 24 h in data set [2] of 1.86. In data set [3], the inhibition result is “inactive”.
Compound `O=S1(=O)CC(c2cccc(F)c2)c2c(C3CC3)nn(-c3ccccc3F)c2O1` (stereo not drawn) registered an IC50 in data set [1] of 4.01 µM. In addition, the logD at 24 h in data set [2] is 2.86. Further, the inhibition result in data set [3] is “inactive”.
`Cc1cc(C2CS(=O)(=O)Oc3c2c(C)nn3-c2ccccc2F)ccc1Br` (stereo not drawn) registered an IC50 in data set [1] of 3.83 µM. In data set [2], the logD at 24 h amounted to 2.26. For the same compound, in data set [3], the inhibition entry is “inactive”.
Take `Cc1cc(C2CS(=O)(=O)Oc3c2c(C2CC2)nn3-c2ccccc2F)ccc1Br` (stereo not drawn): in data set [1], the IC50 worked out at 5.71 µM. This compound registered a logD at 24 h in data set [2] of 2.72. In addition, in data set [3], the inhibition entry is “inactive”.
For `O=S1(=O)CC(c2cccc(C(F)(F)F)c2)c2c(C3CC3)nn(-c3cccc(F)c3)c2O1` (stereo not drawn), the IC50 in data set [1] stood at 4.62 µM. Moreover, in data set [2], the logD at 24 h was 2.73. In addition, in data set [3], the inhibition result is “inactive”.
`Cc1nn(-c2ccccc2F)c2c1C(c1ccc(F)cc1)CS(=O)(=O)O2` (stereo not drawn) displayed an IC50 in data set [1] of 6.1 µM. Besides, the logD at 24 h in data set [2] stood at 2.13. Besides, the inhibition result in data set [3] was “inactive”.
`O=S1(=O)CC(c2ccc(F)cc2)c2c(C3CC3)nn(-c3ccccc3F)c2O1` (stereo not drawn): in data set [1], the midpoint of inhibition, the IC50, lay at 7.76 µM. The logD at 24 h in data set [2] is 1.76. Further, the inhibition result in data set [3] was “inactive”.
Take `Cc1cccc(C2CS(=O)(=O)Oc3c2c(C)nn3-c2ccccc2)c1` (stereo not drawn): in data set [1], the IC50 was 17.7 µM. Further, the inhibition entry in data set [3] was “inactive”.
With `COc1cccc(C2CS(=O)(=O)Oc3c2c(C2CC2)nn3-c2ccccc2F)c1` (stereo not drawn), half-maximal inhibition in data set [1] (IC50) was put at 3.47 µM. Moreover, in data set [2], the logD at 24 h is 2.01. The inhibition result in data set [3] was “inactive”.
`Cc1cc(C2CS(=O)(=O)Oc3c2c(C2CC2)nn3-c2cccc(F)c2)ccc1Br` (stereo not drawn) showed an IC50 in data set [1] of 11.5 µM. Besides, in data set [3], the inhibition result is “inactive”.
In data set [5], `CC1=NN2C(=O)Oc3c(Cl)cc(Cl)cc3C2C1` (stereo not drawn) showed an IC50 above 20 µM.
For the compound `Cc1nn(-c2ccccc2)c2c1C(c1cccc(F)c1)CS(=O)(=O)O2` (stereo not drawn), the IC50 in data set [1] was 9.82 µM. The inhibition entry in data set [3] is “inactive”.
On the same counts, the results for `COc1ccc(-c2nn(-c3ccc(Cl)cc3)c3c2C(c2ccc(Br)c(C)c2)CS(=O)(=O)O3)cc1` (stereo not drawn) are 13.3 µM and “inactive”.
For the compound `COc1ccc(-c2nn(-c3ccccc3F)c3c2C(c2ccc(Br)c(C)c2)CS(=O)(=O)O3)cc1` (stereo not drawn), the midpoint of inhibition in data set [1], the IC50, lay at 4.33 µM. For the same compound, the logD at 24 h in data set [2] stood at 2.91. Moreover, the inhibition entry in data set [3] is “inactive”.
